Reference: the CheMixHub viscosity set
± gives the uncertainty stated by the source.

Assay: xn = mol fraction of the nth substance listed
Details: 101 kPa

Question: Which viscosity (298.15 K, x1 = 0.0436) does the source give for `COCC(C)O` (stereo not given) + CS(C)=O here?
Answer: 1.79 ± 0.17 mPa·s

Question: What about the viscosity (298.15 K, x1 = 0.0879) of the same compound?
Answer: 1.79 ± 0.17 mPa·s

Question: And the viscosity (298.15 K, x1 = 0.1327)?
Answer: 1.78 ± 0.17 mPa·s

Question: And the viscosity (298.15 K, x1 = 0.1781)?
Answer: 1.78 ± 0.17 mPa·s

Question: What about the viscosity (298.15 K, x1 = 0.2242) of the same compound?
Answer: 1.78 ± 0.17 mPa·s

Question: And the viscosity (298.15 K, x1 = 0.2709)?
Answer: 1.77 ± 0.16 mPa·s

Question: What about the viscosity (298.15 K, x1 = 0.3183) of the same compound?
Answer: 1.77 ± 0.16 mPa·s

Question: And the viscosity (298.15 K, x1 = 0.3663)?
Answer: 1.77 ± 0.16 mPa·s

Question: What about the viscosity (298.15 K, x1 = 0.415) of the same compound?
Answer: 1.76 ± 0.16 mPa·s

Question: What about the viscosity (298.15 K, x1 = 0.4644) of the same compound?
Answer: 1.75 ± 0.16 mPa·s

Question: What about the viscosity (298.15 K, x1 = 0.5145) of the same compound?
Answer: 1.75 ± 0.16 mPa·s

Question: What about the viscosity (298.15 K, x1 = 0.5653) of the same compound?
Answer: 1.75 ± 0.16 mPa·s

Question: And the viscosity (298.15 K, x1 = 0.6169)?
Answer: 1.73 ± 0.16 mPa·s

Question: What about the viscosity (298.15 K, x1 = 0.6692) of the same compound?
Answer: 1.72 ± 0.16 mPa·s

Question: What about the viscosity (298.15 K, x1 = 0.7224) of the same compound?
Answer: 1.7 ± 0.16 mPa·s

Question: And the viscosity (298.15 K, x1 = 0.7762)?
Answer: 1.67 ± 0.16 mPa·s

Question: And the viscosity (298.15 K, x1 = 0.8864)?
Answer: 1.62 ± 0.15 mPa·s

Question: What about the viscosity (303.15 K, x1 = 0.0436) of the same compound?
Answer: 1.54 ± 0.15 mPa·s

Question: And the viscosity (303.15 K, x1 = 0.0879)?
Answer: 1.54 ± 0.15 mPa·s

Question: And the viscosity (303.15 K, x1 = 0.1327)?
Answer: 1.53 ± 0.14 mPa·s

Question: And the viscosity (303.15 K, x1 = 0.1781)?
Answer: 1.53 ± 0.14 mPa·s

Question: And the viscosity (303.15 K, x1 = 0.2242)?
Answer: 1.53 ± 0.14 mPa·s

Question: And the viscosity (303.15 K, x1 = 0.2709)?
Answer: 1.53 ± 0.14 mPa·s

Question: And the viscosity (303.15 K, x1 = 0.3183)?
Answer: 1.52 ± 0.14 mPa·s

Question: And the viscosity (303.15 K, x1 = 0.3663)?
Answer: 1.52 ± 0.14 mPa·s

Question: What about the viscosity (303.15 K, x1 = 0.415) of the same compound?
Answer: 1.52 ± 0.14 mPa·s

Question: And the viscosity (303.15 K, x1 = 0.4644)?
Answer: 1.51 ± 0.14 mPa·s

Question: What about the viscosity (303.15 K, x1 = 0.5145) of the same compound?
Answer: 1.51 ± 0.14 mPa·s

Question: What about the viscosity (303.15 K, x1 = 0.5653) of the same compound?
Answer: 1.5 ± 0.14 mPa·s

Question: And the viscosity (303.15 K, x1 = 0.6169)?
Answer: 1.49 ± 0.14 mPa·s

Question: What about the viscosity (303.15 K, x1 = 0.6692) of the same compound?
Answer: 1.47 ± 0.14 mPa·s

Question: And the viscosity (303.15 K, x1 = 0.7224)?
Answer: 1.45 ± 0.14 mPa·s

Question: And the viscosity (303.15 K, x1 = 0.7762)?
Answer: 1.42 ± 0.14 mPa·s

Question: And the viscosity (303.15 K, x1 = 0.8864)?
Answer: 1.36 ± 0.13 mPa·s

Question: And the viscosity (308.15 K, x1 = 0.0436)?
Answer: 1.47 ± 0.14 mPa·s

Question: And the viscosity (308.15 K, x1 = 0.0879)?
Answer: 1.47 ± 0.14 mPa·s

Question: What about the viscosity (308.15 K, x1 = 0.1327) of the same compound?
Answer: 1.46 ± 0.14 mPa·s

Question: And the viscosity (308.15 K, x1 = 0.1781)?
Answer: 1.46 ± 0.14 mPa·s

Question: And the viscosity (308.15 K, x1 = 0.2242)?
Answer: 1.46 ± 0.14 mPa·s

Question: And the viscosity (308.15 K, x1 = 0.2709)?
Answer: 1.45 ± 0.14 mPa·s

Question: What about the viscosity (308.15 K, x1 = 0.3183) of the same compound?
Answer: 1.45 ± 0.14 mPa·s

Question: What about the viscosity (308.15 K, x1 = 0.3663) of the same compound?
Answer: 1.45 ± 0.14 mPa·s

Question: What about the viscosity (308.15 K, x1 = 0.415) of the same compound?
Answer: 1.44 ± 0.14 mPa·s

Question: And the viscosity (308.15 K, x1 = 0.4644)?
Answer: 1.43 ± 0.14 mPa·s

Question: What about the viscosity (308.15 K, x1 = 0.5145) of the same compound?
Answer: 1.43 ± 0.14 mPa·s

Question: What about the viscosity (308.15 K, x1 = 0.5653) of the same compound?
Answer: 1.42 ± 0.14 mPa·s

Question: And the viscosity (308.15 K, x1 = 0.6169)?
Answer: 1.41 ± 0.13 mPa·s

Question: And the viscosity (308.15 K, x1 = 0.6692)?
Answer: 1.39 ± 0.13 mPa·s

Question: What about the viscosity (308.15 K, x1 = 0.7224) of the same compound?
Answer: 1.37 ± 0.13 mPa·s

Question: And the viscosity (308.15 K, x1 = 0.7762)?
Answer: 1.34 ± 0.13 mPa·s

Question: And the viscosity (308.15 K, x1 = 0.8864)?
Answer: 1.28 ± 0.12 mPa·s

Question: And the viscosity (313.15 K, x1 = 0.0436)?
Answer: 1.39 ± 0.13 mPa·s

Question: What about the viscosity (313.15 K, x1 = 0.0879) of the same compound?
Answer: 1.38 ± 0.13 mPa·s

Question: And the viscosity (313.15 K, x1 = 0.1327)?
Answer: 1.38 ± 0.13 mPa·s

Question: What about the viscosity (313.15 K, x1 = 0.1781) of the same compound?
Answer: 1.37 ± 0.13 mPa·s

Question: And the viscosity (313.15 K, x1 = 0.2242)?
Answer: 1.37 ± 0.13 mPa·s

Question: What about the viscosity (313.15 K, x1 = 0.2709) of the same compound?
Answer: 1.36 ± 0.13 mPa·s

Question: And the viscosity (313.15 K, x1 = 0.3183)?
Answer: 1.36 ± 0.13 mPa·s

Question: And the viscosity (313.15 K, x1 = 0.3663)?
Answer: 1.35 ± 0.13 mPa·s

Question: What about the viscosity (313.15 K, x1 = 0.415) of the same compound?
Answer: 1.35 ± 0.13 mPa·s

Question: And the viscosity (313.15 K, x1 = 0.4644)?
Answer: 1.34 ± 0.13 mPa·s

Question: What about the viscosity (313.15 K, x1 = 0.5145) of the same compound?
Answer: 1.34 ± 0.13 mPa·s

Question: And the viscosity (313.15 K, x1 = 0.5653)?
Answer: 1.33 ± 0.13 mPa·s

Question: And the viscosity (313.15 K, x1 = 0.6169)?
Answer: 1.31 ± 0.13 mPa·s

Question: And the viscosity (313.15 K, x1 = 0.6692)?
Answer: 1.29 ± 0.12 mPa·s

Question: What about the viscosity (313.15 K, x1 = 0.7224) of the same compound?
Answer: 1.27 ± 0.12 mPa·s

Question: What about the viscosity (313.15 K, x1 = 0.7762) of the same compound?
Answer: 1.24 ± 0.12 mPa·s

Question: And the viscosity (313.15 K, x1 = 0.8864)?
Answer: 1.18 ± 0.11 mPa·s

Question: And the viscosity (318.15 K, x1 = 0.0436)?
Answer: 1.31 ± 0.13 mPa·s

Question: And the viscosity (318.15 K, x1 = 0.0879)?
Answer: 1.3 ± 0.12 mPa·s

Question: And the viscosity (318.15 K, x1 = 0.1327)?
Answer: 1.3 ± 0.12 mPa·s

Question: What about the viscosity (318.15 K, x1 = 0.1781) of the same compound?
Answer: 1.29 ± 0.12 mPa·s

Question: And the viscosity (318.15 K, x1 = 0.2242)?
Answer: 1.29 ± 0.12 mPa·s

Question: What about the viscosity (318.15 K, x1 = 0.2709) of the same compound?
Answer: 1.29 ± 0.12 mPa·s

Question: And the viscosity (318.15 K, x1 = 0.3183)?
Answer: 1.28 ± 0.12 mPa·s

Question: What about the viscosity (318.15 K, x1 = 0.3663) of the same compound?
Answer: 1.28 ± 0.12 mPa·s

Question: What about the viscosity (318.15 K, x1 = 0.415) of the same compound?
Answer: 1.28 ± 0.12 mPa·s

Question: What about the viscosity (318.15 K, x1 = 0.4644) of the same compound?
Answer: 1.27 ± 0.12 mPa·s

Question: And the viscosity (318.15 K, x1 = 0.5145)?
Answer: 1.26 ± 0.12 mPa·s

Question: What about the viscosity (318.15 K, x1 = 0.5653) of the same compound?
Answer: 1.25 ± 0.12 mPa·s

Question: What about the viscosity (318.15 K, x1 = 0.6169) of the same compound?
Answer: 1.24 ± 0.12 mPa·s

Question: What about the viscosity (318.15 K, x1 = 0.6692) of the same compound?
Answer: 1.22 ± 0.12 mPa·s

Question: What about the viscosity (318.15 K, x1 = 0.7224) of the same compound?
Answer: 1.2 ± 0.12 mPa·s

Question: What about the viscosity (318.15 K, x1 = 0.7762) of the same compound?
Answer: 1.17 ± 0.11 mPa·s

Question: And the viscosity (318.15 K, x1 = 0.8864)?
Answer: 1.11 ± 0.11 mPa·s
